Assays:
aorta pieces of rat = assay: Inhibition of capillary formation in rat aorta model (aorta pieces cultured in collagen gel); format: cell-based; conditions: 7th day from addition of sample
Method: In a method of screening the antiangiogenic effect, the degree of inhibition to the formation of lumens observed when an aortic fragment of a rat is cultured in a collagen gel was selected as an indicator (Nicosia R. F., Lab. Invest., 63, 115, 1990). Also, for the purpose of analyzing the mechanism of action of the antiangiogenic effect of the resulting compound, measurements were made concerning the effect of inhibiting the growth of endothelial cells by using endothelial cells derived from the human umbilical cord vein and the effect of inhibiting the expression of an adhesion molecules on endothelial cells.
The antiangiogenic potency was evaluated by the inhibition of capillary formation in rat aorta model in which aorta pieces of rat were cultured in collagen gel. That is, the aorta excised from male rat of Sprague-Dawley strain (8-12 weeks age) was washed with a Hanks' solution so that fat tissues around there were removed minutely. The aorta was incised to prepare pieces of 2 mm square and they were allowed to stand in a 24-well plate holding the endothelial cells upside. Then, 500 μl of neutralized Type I collagen (Cell Matrix Type I-A; manufactured by Nitta Gelatin) were poured over each well and allowed to stand at room temperature for about 20 minutes in a clean bench to solidify the gel. After gelling, 500 μl of MCDB 131 medium (manufactured by Chlorella Kogyo) were added thereto followed by incubating in a Co2 incubator (5% CO2) at 37° C. On the next day, the culture medium was exchanged with 500 μl of MCDB 131 medium containing the sample and the incubation was continued. And, at the stage of the 7th day from the addition of the sample, numbers of capillaries formed around the aorta were counted. The IC50 value of each sample is defined as a concentration that the number of blood capillaries is 50% of that observed when no sample was added.

[1] = test system: Endothelial cells derived from human umbilical vein (HUVEC); assay: Inhibitory effect of growth of endothelial cells (MTT method); format: cell-based; conditions: three days
Method: Endothelial cells derived from human umbilical vein (HUVEC; manufactured by Sanko Junyaku) incubated in an EGM medium (manufactured by Sanko Junyaku) were adjusted to 1×10^4 cells/ml and each 100 μl were separately placed on a 96-well plate. After incubating overnight, 100 μl of medium containing sample were added thereto followed by incubating for three days. The cell numbers at that time were measured by MTT method. That is, 50 μl of PBS solution containing 0.33% of 3-(4,5-dimethylthiazol-2-yl)-2,5-diphenyltetrazolium bromide (MTT) was added thereto and incubation was continued for further 3-4 hours. After the supernatant liquid of the culture was removed, 100 μl of DMSO was added to dissolve a formazane which was formed in the cells and the absorbance at the wave length of 460 nm was measured by use of plate reader. The IC50 value is defined as a concentration that the absorbance was 50% of that observed when no sample was added.

VCAM-1 = assay: Inhibition of TNFα-induced expression of adhesion molecule VCAM-1 on endothelial cells; format: cell-based, human; conditions: HUVEC, TNFα 1 ng/ml, 4 hours
Method: (§1) Endothelial cells derived from human umbilical vein (HUVEC) were cultured on a 96-well plate until they were fallen in a confluent state. The culture broth was removed. After 150 μl of a new culture broth was added to each well, 20 μl of a sample solution was added thereto. After 15 minutes, 30 μl of TNFα was added such that the final concentration became 1 ng/ml and it was incubated at 37° C. for 4 hours in a 5% CO2 incubator. Next, the culture broth was removed and the cells were washed twice with a phosphate buffer (PBS). Further, a PBS solution containing 0.025% glutaraldehyde was added and the well was allowed to stand at room temperature for 6 minutes to fix the cells. After the cells were immobilized, they were washed twice with 200 μl of phosphate buffer (PBSA) containing 0.25% BSA. Thereafter 100 μl of a PBSA solution containing 1 μg/ml of mouse anti-human VCAM-1 (R&D systems) or a mouse anti-human E-selectin antibody (R&D systems) was added to each well. The well was allowed to stand at room temperature for 30 minutes and then the cells were again washed. A PBSA solution containing 100 μl of peroxidase-conjugated goat anti-mouse antibody (Cosmo Bio Co., Ltd.) was added to the well. Then the well was allowed to stand at room temperature for 30 minutes and thereafter the cells were washed. In succession, 100 μl of 3,3*,5,5*-tetramethylbenzyidine (TMB) substrate solution was added to develop a color. Next, the coloring was stopped by 100 μl of 1M phosphoric acid to measure the absorbance at 450 nm.

E-selectin = assay: Inhibition of TNFα-induced expression of adhesion molecule E-selectin on endothelial cells; format: cell-based, human; conditions: HUVEC, TNFα 1 ng/ml, 4 hours
Method: as §1

[2] = Solubility (analysis data); format: physicochemical
[3] = Safety of VD1207 analogues, intraperitoneal administration over 4 days; format: in vivo; set-up: key to Blood (WBC) / Blood (PLAT) / Biochemistry (UN) / Biochemistry (GPT) / Weight (liver) / Weight (kidney) / Weight (lung) / Weight (spleen) / Body weight / Blood (RBC): —: “-” indicates no abnormality; “↑” and “↓” indicate an increase and a decrease, respectively; “↑” and “↓” indicate an increase and a decrease, respectively
Method: Each of VD1207B, C, D, E, F and G2 was continuously administered intraperitoneally at each dose of 1 mg/kg and 2 mg/kg over 4 days to examine the safety of VD1207 analogues.

SMILES: CCCC(C(=O)c1cc(CC(C)C)c(O)c(C(C)=O)c1O)C1CC(O)C2(OC2CC)C(O)O1 (stereo not drawn) [VD1207 H]
- IC50 (number of blood capillaries 50% of that without sample) (aorta pieces of rat): 0.38 µg/mL
- IC50 (growth of endothelial cells, absorbance 50% of no sample) [1]: 0.52 µg/mL
- VCAM-1 (IC50 of expression) (VCAM-1): 1.06 µg/mL
- E-select (IC50 of expression) (E-selectin): 2.48 µg/mL
- Solubility in ethyl acetate, chloroform and dimethyl sulfoxide [2]: soluble
- Solubility in neutral water [2]: insoluble

SMILES: CCC1OC12C(O)CC(C(CC(C)C)C(=O)c1cc(C(=O)C(C)C)c(O)cc1O)OC2O (single isomer, unassigned) [VD1207 A1]
- IC50 (growth of endothelial cells, absorbance 50% of no sample) ([1]; listed as A1): 17.6 µg/mL
- Solubility in ethyl acetate, chloroform and dimethyl sulfoxide [2]: soluble
- Solubility in neutral water [2]: insoluble

SMILES: CCC1OC12C(O)CC(C(CC(C)C)C(=O)c1cc(C(=O)C(C)C)c(O)cc1O)OC2O (single isomer, unassigned) [VD1207 A2]
- IC50 (number of blood capillaries 50% of that without sample) (aorta pieces of rat): 1 µg/mL
- IC50 (growth of endothelial cells, absorbance 50% of no sample) ([1]; listed as A2): 18.7 µg/mL
- Solubility in ethyl acetate, chloroform and dimethyl sulfoxide [2]: soluble
- Solubility in neutral water [2]: insoluble

SMILES: CCCC(C(=O)c1cc(CC(C)C)c(O)c(C=O)c1O)C1CC(O)C2(OC2CC)C(O)O1 (stereo not drawn) [VD1207 D]
- IC50 (number of blood capillaries 50% of that without sample) (aorta pieces of rat): 0.019 µg/mL
- IC50 (growth of endothelial cells, absorbance 50% of no sample) [1]: 0.18 µg/mL
- VCAM-1 (IC50 of expression) (VCAM-1): 1.11 µg/mL
- E-select (IC50 of expression) (E-selectin): 1.40 µg/mL
- Biochemistry (GPT) ([3]; 1 mg/kg i.p. 4 days): —
- Biochemistry (UN) ([3]; 1 mg/kg i.p. 4 days): —
- Blood (PLAT) ([3]; 1 mg/kg i.p. 4 days): —
- Blood (RBC) ([3]; 1 mg/kg i.p. 4 days): —
- Blood (WBC) ([3]; 1 mg/kg i.p. 4 days): —
- Body weight ([3]; 1 mg/kg i.p. 4 days): —
- Weight (kidney) ([3]; 1 mg/kg i.p. 4 days): —
- Weight (liver) ([3]; 1 mg/kg i.p. 4 days): ↑
- Weight (lung) ([3]; 1 mg/kg i.p. 4 days): —
- Weight (spleen) ([3]; 1 mg/kg i.p. 4 days): —
- Biochemistry (GPT) ([3]; 2 mg/kg i.p. 4 days): —
- Biochemistry (UN) ([3]; 2 mg/kg i.p. 4 days): —
- Blood (PLAT) ([3]; 2 mg/kg i.p. 4 days): —
- Blood (RBC) ([3]; 2 mg/kg i.p. 4 days): —
- Blood (WBC) ([3]; 2 mg/kg i.p. 4 days): —
- Body weight ([3]; 2 mg/kg i.p. 4 days): —
- Weight (kidney) ([3]; 2 mg/kg i.p. 4 days): —
- Weight (liver) ([3]; 2 mg/kg i.p. 4 days): ↑
- Weight (lung) ([3]; 2 mg/kg i.p. 4 days): —
- Weight (spleen) ([3]; 2 mg/kg i.p. 4 days): —
- Solubility in ethyl acetate, chloroform and dimethyl sulfoxide [2]: soluble
- Solubility in neutral water [2]: insoluble

Reference: patent US6645996B1, “Physiologically active substances” (Mercian Corporation and Eisai Co., Ltd., priority 1998, dated 2003)
